Results as given in US20080275086A1, “Dpp-Iv Inhibitors” (priority 2005, published 2008).
Where a name gives a salt, the structure may show the parent alone.

The compounds below were run against T1, DPP-IV (Homo sapiens, UniProt P27487) (assay: Continuous fluorimetric assay of inhibition of DPP-IV peptidase activity (Gly-Pro-AMC cleavage)). Settings: not given.
T1 construct: Soluble human DPP-IV lacking the transmembrane anchor (Gly31-Pro766); Pre-Pro-alpha-mating factor leader (secretion fusion) (N, cleaved yes); made in house
T1 sequence (P27487 31-766): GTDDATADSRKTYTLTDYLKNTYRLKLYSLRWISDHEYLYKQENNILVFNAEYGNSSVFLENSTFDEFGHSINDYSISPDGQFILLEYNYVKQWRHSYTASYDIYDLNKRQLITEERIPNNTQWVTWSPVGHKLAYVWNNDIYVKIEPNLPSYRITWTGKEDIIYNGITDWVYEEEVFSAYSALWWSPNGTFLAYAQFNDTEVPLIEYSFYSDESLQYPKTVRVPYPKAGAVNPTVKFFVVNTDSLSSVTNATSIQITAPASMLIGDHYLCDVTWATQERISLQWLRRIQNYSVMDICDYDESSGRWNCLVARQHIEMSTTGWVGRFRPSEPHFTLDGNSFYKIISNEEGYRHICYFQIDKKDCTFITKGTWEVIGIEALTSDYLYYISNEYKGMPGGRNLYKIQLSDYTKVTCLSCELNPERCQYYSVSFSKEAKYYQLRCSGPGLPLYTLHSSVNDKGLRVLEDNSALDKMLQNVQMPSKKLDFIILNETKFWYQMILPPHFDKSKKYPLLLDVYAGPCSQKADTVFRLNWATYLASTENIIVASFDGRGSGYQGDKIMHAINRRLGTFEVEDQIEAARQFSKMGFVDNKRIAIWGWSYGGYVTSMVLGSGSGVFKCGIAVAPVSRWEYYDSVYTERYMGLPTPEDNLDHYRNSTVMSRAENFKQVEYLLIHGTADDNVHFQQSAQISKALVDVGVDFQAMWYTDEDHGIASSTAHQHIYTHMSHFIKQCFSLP
Format: biochemical
Method: Inhibition of DPP-IV peptidase activity was monitored with a continuous fluorimetric assay. This assay is based on the cleavage of the substrate Gly-Pro-AMC (Bachem) by DPP-IV, releasing free AMC. The assay is carried out in 96-well microtiterplates. In a total volume of 100 μL, compounds are preincubated with 50 pM DPP-IV employing a buffer containing 10 mM Hepes, 150 mM NaCl, 0.005% Tween 20 (pH 7.4). The reaction is started by the addition of 16 μM substrate and the fluorescence of liberated AMC is detected for 10 minutes at 25° C. with a fluorescence reader (BMG-Fluostar; BMG-Technologies) using an excitation wavelength of 370 nm and an emission wavelength of 450 nm. The final concentration of DMSO is 1%. The inhibitory potential of the compounds were determined.
Soluble human DPP-IV lacking the transmembrane anchor (Gly31-Pro766) was expressed in a recombinant YEAST-strain as Pre-Pro-alpha-mating fusion. The secreted product (rhuDPP-IV-Gly31-Pro766) was purified from fermentation broth (>90% purity) and used for inhouse screening.

Row | SMILES | IC50
1 | N#CC1(c2ccccc2)CCN(C(=O)C[C@H](N)Cc2ccccc2F)CC1 [Example 5] | < 500 nM
2 | N[C@@H](CC(=O)N1CCC(N2C(=O)Cc3ccccc32)CC1)Cc1ccccc1F [Example 45] | < 500 nM

Same assay, conditions: 50 pM DPP-IV, 16 μM Gly-Pro-AMC, pH 7.4, 25° C.; values grouped in 2 classes; read-out: IC50 for inhibition of DPP-IV peptidase activity

Row | SMILES | IC50
3 | N[C@@H](CC(=O)N1CCCC(C(F)(F)F)C1)Cc1ccccc1F (some centres unmarked) [Example 46] | 501 to 2000 nM
4 | N[C@@H](CC(=O)N1CCC(C(=O)NCCO)CC1)Cc1ccccc1F [Example 24] | 501 to 2000 nM
5 | CS(=O)(=O)c1ccc(-c2noc(C3CCN(C(=O)C[C@H](N)Cc4ccccc4F)CC3)n2)cc1 [Example 22] | < 500 nM
6 | N[C@@H](CC(=O)N1CCC(N2CCOCC2)CC1)Cc1ccccc1F [Example 25] | 501 to 2000 nM
7 | N[C@@H](CC(=O)N1CCC(CO)CC1)Cc1ccccc1F [Example 2] | 501 to 2000 nM
8 | N[C@@H](CC(=O)N1CC(N2CCN(c3ccccn3)CC2)C1)Cc1ccccc1F [Example 51, (3R)-3-amino-4-(2-fluoro-phenyl)-1-[3-(4-pyridin-2-yl-piperazin-1-yl)-azetidin-1-yl]-butan-1-one trifluoroacetic acid] | 501 to 2000 nM
9 | N[C@@H](CC(=O)N1CCC(Oc2ccccc2)CC1)Cc1ccccc1F [Example 20] | < 500 nM
10 | N[C@@H](CC(=O)N1CCCC1Cc1ccccc1)Cc1ccccc1F (mixture of isomers) [Example 12] | < 500 nM
11 | N[C@@H](CC(=O)N1CCC(O)CC1)Cc1ccccc1F [Example 10] | 501 to 2000 nM
12 | N[C@@H](CC(=O)N1CCC(N(C2CC2)S(=O)(=O)c2ccccc2)CC1)Cc1ccccc1F [Example 3] | < 500 nM
13 | N[C@@H](CC(=O)N1CCC(N2CCCCC2=O)CC1)Cc1ccccc1F [Example 8] | 501 to 2000 nM
14 | N[C@@H](CC(=O)N1CCC(N(C2CC2)S(=O)(=O)c2ccc(Cl)cc2)CC1)Cc1ccccc1F [Example 36] | < 500 nM
15 | N[C@@H](CC(=O)N1CCC(c2cccc(Cl)c2)CC1)Cc1ccccc1F [Example 42] | 501 to 2000 nM
16 | N[C@@H](CC(=O)N1CCC(Nc2cccc(S(=O)(=O)C(F)(F)F)c2)CC1)Cc1ccccc1F [Example 31] | < 500 nM
17 | N[C@@H](CC(=O)N1CCC(c2nnc(-c3cccc(C(F)(F)F)c3)o2)CC1)Cc1ccccc1F [Example 41] | 501 to 2000 nM
18 | N[C@@H](CC(=O)N1CC(C(=O)Nc2ccccn2)C1)Cc1ccccc1F [Example 50] | 501 to 2000 nM
19 | N[C@@H](CC(=O)N1CCC(c2nc(-c3cnccn3)no2)CC1)Cc1ccccc1F [Example 26] | < 500 nM
20 | N[C@@H](CC(=O)N1CCC(c2nnc(-c3ccccc3)o2)CC1)Cc1ccccc1F [Example 21] | < 500 nM
21 | COc1cc(OC)nc(C2CCN(C(=O)C[C@H](N)Cc3ccccc3F)CC2)n1 [Example 29] | < 500 nM
22 | N[C@@H](CC(=O)N1CCC(n2nnc3ccccc32)CC1)Cc1ccccc1F [Example 19] | < 500 nM
23 | N[C@@H](CC(=O)N1CC(C(=O)NCc2ccccc2)C1)Cc1ccccc1F [Example 49, 1-[3-(R)-amino-4-(2-fluoro-phenyl)-butyryl]-azetidine-3-carboxylic acid benzylamide] | 501 to 2000 nM
24 | N[C@@H](CC(=O)N1CC[C@H](NC(=O)C2CC2)C1)Cc1ccccc1F [Example 52, N-((S)-1-((R)-3-amino-4-(2-fluorophenyl)butanoyl)pyrrolidin-3-yl)cyclopropane-carboxamide trifluoroacetic acid salt] | < 500 nM
25 | N[C@@H](CC(=O)N1CCCC1Cc1cccnc1)Cc1ccccc1F (some centres unmarked) [Example 13] | < 500 nM
26 | N[C@@H](CC(=O)N1CC[C@@H](NC(=O)C2CC2)C1)Cc1ccccc1F [Example 54, N-((R)-1-((R)-3-amino-4-(2-fluorophenyl)butanoyl)pyrrolidin-3-yl)cyclopropane-carboxamide trifluoroacetic acid salt] | < 500 nM
27 | N[C@@H](CC(=O)N1CCCC1Cc1ccccn1)Cc1ccccc1F (some centres unmarked) [Example 18] | < 500 nM
28 | N[C@@H](CC(=O)N1CCCC(Cc2ccccc2Cl)C1)Cc1ccccc1F (some centres unmarked) [Example 33] | 501 to 2000 nM
29 | COc1ccc(C2CCN(C(=O)C[C@H](N)Cc3ccccc3F)CC2)cc1 [Example 7] | < 500 nM

Row | SMILES | IC50
30 | N[C@@H](CC(=O)N1CCC(Cc2ccccc2)CC1)Cc1ccccc1F [Example 1] | 501 to 2000 nM
31 | N[C@@H](CC(=O)N1CC[C@H](NC(=O)c2ccccc2)C1)Cc1ccccc1F [Example 53, N-((S)-1-((R)-3-amino-4-(2-fluorophenyl)butanoyl)pyrrolidin-3-yl)benzamide trifluoroacetic acid salt] | < 500 nM
32 | N[C@H](Cc1ccccc1F)CS(=O)(=O)N1CCC[C@H]1CNS(=O)(=O)c1ccccc1 [Example 56, N-{(S)-1-[(R)-2-Amino-3-(2-fluoro-phenyl)-propane-1-sulphonyl]-pyrrolidin-2-ylmethyl}-benzenesulfonamide] | < 500 nM
33 | Cc1ccc(S(=O)(=O)C2CCN(C(=O)C[C@H](N)Cc3ccccc3F)CC2)cc1 [Example 39] | < 500 nM
34 | N[C@@H](CC(=O)N1CCC(c2ccccc2C(F)(F)F)CC1)Cc1ccccc1F [Example 38] | < 500 nM
35 | N[C@@H](CC(=O)N1CCC(n2c(=O)[nH]c3cc(Cl)ccc32)CC1)Cc1ccccc1F [Example 14] | < 500 nM
36 | N[C@@H](CC(=O)N1CCCC(Oc2ccccc2)C1)Cc1ccccc1F (some centres unmarked) [Example 34] | < 500 nM
37 | N[C@@H](CC(=O)N1CC[C@@H](NC(=O)c2ccccc2)C1)Cc1ccccc1F [Example 55, N-((R)-1-((R)-3-amino-4-(2-fluorophenyl)butanoyl)pyrrolidin-3-yl)benzamide trifluoroacetic acid salt] | < 500 nM
38 | N[C@@H](CC(=O)N1CCC(c2nc(-c3cccc(C(F)(F)F)c3)no2)CC1)Cc1ccccc1F [Example 40] | 501 to 2000 nM
39 | N[C@@H](CC(=O)N1CCC[C@H]1Cc1ccccc1)Cc1ccccc1F (single isomer, unassigned) [Example 47] | < 500 nM
40 | CCN(CC)C(=O)C1CCCN(C(=O)C[C@H](N)Cc2ccccc2F)C1 (some centres unmarked) [Example 11] | 501 to 2000 nM
41 | N[C@@H](CC(=O)N1CCC(c2nc(-c3cccnc3)no2)CC1)Cc1ccccc1F [Example 23] | < 500 nM
42 | N[C@@H](CC(=O)N1CCC(C(F)(F)F)CC1)Cc1ccccc1F [Example 27] | < 500 nM
43 | N[C@@H](CC(=O)N1CCCC1Cc1ccc(Cl)cc1)Cc1ccccc1F (some centres unmarked) [Example 17] | < 500 nM
44 | N[C@@H](CC(=O)N1CCCC1Cc1cccc(Cl)c1)Cc1ccccc1F (some centres unmarked) [Example 16] | < 500 nM
45 | N[C@@H](CC(=O)N1CCC(F)CC1)Cc1ccccc1F [Example 44] | 501 to 2000 nM
46 | N[C@@H](CC(=O)N1CCC(c2cccc(F)c2)CC1)Cc1ccccc1F [Example 37] | 501 to 2000 nM
47 | N[C@@H](CC(=O)N1CCC[C@@H]1Cc1ccccc1)Cc1ccccc1F (single isomer, unassigned) [Example 48] | < 500 nM
48 | N[C@@H](CC(=O)N1CCC(c2ccccc2)CC1)Cc1ccccc1F [Example 4] | < 500 nM
49 | N[C@@H](CC(=O)N1CCCC(F)C1)Cc1ccccc1F (some centres unmarked) [Example 43] | 501 to 2000 nM
50 | N[C@@H](CC(=O)N1CCC(c2nnc(-c3ccc(F)cc3)o2)CC1)Cc1ccccc1F [Example 28] | < 500 nM
51 | N[C@@H](CC(=O)N1CCC(c2nc(-c3ccncc3)no2)CC1)Cc1ccccc1F [Example 15] | < 500 nM
52 | N[C@@H](CC(=O)N1CCC(n2c(=O)[nH]c3ccccc32)CC1)Cc1ccccc1F [Example 6] | < 500 nM
53 | COc1ccccc1C1CCN(C(=O)C[C@H](N)Cc2ccccc2F)CC1 [Example 9] | < 500 nM
54 | N[C@@H](CC(=O)N1CCC(c2ccc(Cl)cc2)CC1)Cc1ccccc1F [Example 35] | 501 to 2000 nM
55 | N[C@@H](CC(=O)N1CCCC(F)(F)C1)Cc1ccccc1F [Example 30] | 501 to 2000 nM
56 | N[C@@H](CC(=O)N1CCC(c2nc3ccccc3[nH]2)CC1)Cc1ccccc1F [Example 32] | < 500 nM
